# Source: patent US7875587B2, “Peptide analogues of GIP for treatment of diabetes, insulin resistance and obesity” (UUTECH Limited, priority 2004, dated 2011)
# No end group written: not given here.
# Key:
# normal mice = assay: Chronic (11 days) (Pro3)GIP administration in normal mice; assay type: in vivo, mouse
# Protocol: Effects of chronic (Pro^3)GIP administration on plasma glucose, insulin and glycated HbA1c in obese diabetic ob/ob mice and normal mice. Obese diabetic ob/ob mice and normal control mice aged 8-12 weeks were randomly divided into groups which received once daily subcutaneous injections (17:00 h) of either saline (0.9% w/v NaCl) or (Pro^3)GIP (25 nmol/kg body weight in saline). After 11 days, treatment was ceased. Food intake and body weight were recorded daily. Blood samples were collected from the cut tip of the tail of conscious mice into chilled fluoride/heparin coated glucose microcentrifuge tubes (Sarstedt, Numbrecht, Germany). Blood samples were immediately centrifuged using a Beckman microcentrifuge (Beckman Instruments, UK) for 30 seconds at 13000 g prior to glucose, insulin and HbA1c determinations.
# Effects of chronic treatment with (Pro^3)GIP on glucose tolerance in ob/ob mice and normal mice. Plasma glucose and insulin concentrations were measured following intraperitoneal administration of glucose (18 mmol/kg body weight) in ob/ob and normal mice treated with either saline (0.9% w/v NaCl) or (Pro^3)GIP (25 nmol/kg body weight/day) for 11 days. […]
# Determination of HbA1c, plasma glucose and insulin concentrations. HbA1c was measured in whole blood by ion-exchange high-performance liquid chromatography using the Menari HA-8140 kit (BIOMEN, Berkshire, UK). […]
# ob/ob mice = assay: Once daily i.p. (Pro3)GIP over 11 days in ob/ob mice (Example 5); assay type: in vivo, mouse
# Protocol: Animals. Obese diabetic (ob/ob) mice derived from the colony maintained at Aston University, UK (Bailey, C. J., et al., 1982, Int. J. Obes. 6:11-21) were used at 12-16 weeks of age. Animals were age-matched, divided into groups and housed individually in an air-conditioned room at 22±2° C. with a 12 hour light: 12 hour dark cycle. Drinking water and a standard rodent maintenance diet (Trouw Nutrition, Cheshire, UK) were freely available. All animal experiments were carried out in accordance with the UK Animals (Scientific Procedures) Act 1986.
# Experimental protocols for ob/ob mouse studies. Initially, extended biological activity of (Pro^3)GIP was examined in 18-hour fasted ob/ob mice 4 hours after administration. Thereafter, over an 11-day period, mice received once daily i.p. injections (17:00 hours) of either saline vehicle (0.9% (w/v), NaCl) or (Pro^3)GIP (25 nmol/kg body wt). During a subsequent 9-day period, observations were continued following discontinuation of (Pro^3)GIP administration. Food intake and body weight were recorded daily whilst plasma glucose and insulin concentrations were monitored at intervals of 2-6 days. Whole blood for the measurement of glycated hemoglobin was taken on days 11 and 20. Intraperitoneal glucose tolerance (18 mmol/kg body wt), metabolic response to native GIP (25 nmol/kg body wt) and insulin sensitivity (50 U/kg body wt) tests were performed on days 11 and 20. Mice fasted for 18 hours were used to examine the metabolic response to 15 minutes feeding. In a separate series, pancreatic tissues were excised at the end of the 11-day treatment period or 9 days following discontinuation of (Pro^3)GIP and processed for immunohistochemistry or measurement of insulin following extraction with 5 ml/g of ice-cold acid ethanol (750 ml ethanol, 235 ml water, 15 ml concentrated HCl). Blood samples taken from the cut tip of the tail vein of conscious mice at the times indicated in the Figures were immediately centrifuged using a Beckman microcentrifuge (Beckman Instruments, UK) for 30 seconds at 13,000 g. The resulting plasma was then aliquoted into fresh Eppendorf tubes and stored at −20° C. prior to glucose and insulin determinations.
# Biochemical analysis. Plasma glucose was assayed by an automated glucose oxidase procedure (Stevens, J. F., 1971, Clin. Chem. Acta 32:199-201) using a Beckman Glucose Analyzer II (Beckman Instruments, Galway, Ireland). Plasma and pancreatic insulin were assayed by a modified dextran-coated charcoal radioimmunoassay (Flatt, P. R. et al., 1981, Diabetologia 20:573-577). Glycated hemoglobin was determined using cation-exchange columns (Sigma, Poole, Dorset, UK) with measurement of absorbance (415 nm) in wash and eluting buffer using a VersaMax Microplate Spectrophotometer (Molecular Devices, Wokingham, Berkshire, UK).
# Immunocytochemistry. Tissue fixed in 4% paraformaldehyde/PBS and embedded in paraffin was sectioned at 8 μm. After de-waxing, sections were incubated with blocking serum (Vector Laboratories, Calif., USA) prior to exposure to insulin antibody. Tissue samples were then incubated consecutively with secondary biotinylated universal, pan-specific antibody (Vector Laboratories, Calif., USA) and streptavidin/peroxidase preformed complex (Vector Laboratories, Calif., USA). Following washing, the stained pancreatic tissue was counterstained with hematoxylin (BDH Chemicals, Dorset, UK) and then plunged into acid methanol (500 ml methanol, 500 ml H2O and 2.5 ml concentrated HCl) prior to dehydration and mounting in Depex (BDH Chemicals, Dorset, UK). The stained slides were viewed under a microscope (Nikon Eclipse E2000, Diagnostic Instruments Incorporated, Michigan, USA) attached to a JVC camera Model KY-F55B (JVC, London, UK) and analyzed using Kromoscan imaging software (Kinetic Imaging Limited, Faversham, Kent, UK). […]
# [1] = 4 hours after 25 nmoles/kg, 18 h fasted, vs saline
sequence,measurement,setting,value
YAPGTFISDYSIAMDKIHQQDFVNWLLAQKGKKNDWKHNITQ [(Pro^3)GIP],glucose tolerance in normal mice after cessation,normal mice; 9 days after cessation of treatment,reversed 9 days after cessation of treatment
same,glucose tolerance in normal mice,normal mice; daily treatment for 11 days,marked deterioration of glucose tolerance
same,reduction of non-fasting plasma glucose levels,"ob/ob mice; 25 nmol/kg/day i.p., 11 days, vs controls",1.6 fold
same,reduction of overall glycemic excursion (AUC) to a glucose load,"ob/ob mice; 25 nmol/kg/day i.p., 11 days, vs controls (abstract of Example 5)",1.6 fold
same,decrease of AUC insulin in response to native GIP with glucose,ob/ob mice; [1],25%
same,increase of AUC glucose in response to native GIP with glucose,ob/ob mice; [1],151%
same,glycated hemoglobin,ob/ob mice; 9 days following cessation of daily injection,7.7±0.4%
same,average islet diameter,ob/ob mice; 11 days treatment,markedly and significantly reduced
same,enhancement of insulin sensitivity,ob/ob mice; 11 days treatment,1.6 fold
same,islet number per pancreatic section,ob/ob mice; 11 days treatment,No significant differences
same,lowering of overall plasma glucose response to feeding,ob/ob mice; 11 days treatment,1.4 fold
same,lowering of overall plasma insulin response to feeding,ob/ob mice; 11 days treatment,1.5 fold
same,pancreatic weight,ob/ob mice; 11 days treatment,no effect
same,plasma insulin AUC 0-60 minutes after i.p. glucose,ob/ob mice; 11 days treatment,significantly decreased
same,reduction of pancreatic insulin content,ob/ob mice; 11 days treatment,1.3 fold
same,reduction of plasma glucose AUC 0-60 minutes after i.p. glucose,"ob/ob mice; 11 days treatment, glucose 18 mmoles/kg, vs controls",2.1 fold
same,hypoglycemic action of insulin (AUC and post injection values),"ob/ob mice; 11 days treatment, insulin 50 U/kg i.p.",significantly (P<0.05) augmented
same,pancreatic insulin content,"ob/ob mice; 11 days treatment, vs controls",significantly (P<0.05) decreased
same,glycated hemoglobin,ob/ob mice; after 11 days treatment,6.9±0.2%
same,glycated hemoglobin,ob/ob mice; before treatment,8.0±0.3%
same,body weight,"ob/ob mice; daily 25 nmol/kg, 11 days",no effect
same,food intake,"ob/ob mice; daily 25 nmol/kg, 11 days",no effect
same,non-fasting plasma glucose,ob/ob mice; day 11,significantly reduced
same,plasma insulin levels,ob/ob mice; during or after the treatment period,No significant changes
same,adverse effects,ob/ob mice; following administration to ob/ob mice,No adverse effects were observed
same,increase in the glucose-lowering action of exogenous insulin,ob/ob mice; insulin sensitivity test after 11 days,57%
